The source of these data is patent US8226966B2, “Fungicide N-6-membered fused (hetero) aryl-methylene-N-cycloalkyl carboxamide derivatives” (Bayer Cropscience AG, priority 2007, dated 2012).

A short description of the first series: logP by HPLC on reversed-phase column (C 18), EEC Directive 79/831 Annex V.A8. To be noted: 40° C., 0.1% aqueous formic acid and acetonitrile, linear gradient 10% to 90% acetonitrile. It is filed as physicochemical. As to the method:
In the following table, the logP values were determined in accordance with EEC Directive 79/831 Annex V.A8 by HPLC (High Performance Liquid Chromatography) on a reversed-phase column (C 18), using the method described below: Temperature: 40° C.; Mobile phases: 0.1% aqueous formic acid and acetonitrile linear gradient from 10% acetonitrile to 90% acetonitrile. Calibration was carried out using unbranched alkan-2-ones (comprising 3 to 16 carbon atoms) with known logP values (determination of the logP values by the retention times using linear interpolation between two successive alkanones).
`Cc1nn(C)c(F)c1C(=O)N(Cc1ccc(Br)c2cccnc12)C1CC1` [Example 167]: the LogP (commonly the decadic logarithm of the partition coefficient of the neutral form, usually between octanol and water) was determined as 2.9. Still for that read-out and setting: under `COc1ccc2ccc(OC)c(CN(C(=O)c3c(C)nn(C)c3F)C3CC3)c2c1` [Example 222] stands 2.96.

Still in this series, the particulars now being: 40° C., 0.1% aqueous formic acid and acetonitrile, linear gradient from 10% to 90% acetonitrile.
For the compound `Cc1nn(C)c(F)c1C(=S)N(Cc1ccc2ccccc2c1Br)C1CC1` [Example 25], the LogP came out at 4.39.

Turning to `Cn1cc(C(=O)N(Cc2ccc3ccccc3c2Br)C2CC2)c(C(F)F)n1` [Example 26], the LogP is listed as 3.68.

For `COc1nn(C)cc1C(=O)N(Cc1ccc2ccccc2c1Br)C1CC1` [Example 27], the LogP is reported as 3.24. On to `COc1nn(C)cc1C(=S)N(Cc1ccc2ccccc2c1Br)C1CC1` [Example 28], for which the LogP was found to be 4.25. The same measure, in the same setting: the same measure for `Cc1ccc2ccccc2c1CN(C(=O)c1cn(C)nc1C(F)F)C1CC1` [Example 40]: 3.25. In the case of `Cc1nn(C)c(F)c1C(=O)N(Cc1ccc(Br)c2ccccc12)C1CC1` [Example 54], the LogP was found to be 3.62.

Take `Cn1cc(C(=O)N(Cc2ccc(Br)c3ccccc23)C2CC2)c(C(F)F)n1` [Example 55]: the LogP was 3.69.

Take `Cc1cc(C(=O)N(C2CC2)C(C)c2ccc(Br)c3ccccc23)c(C)o1` (stereo not shown) [Example 60]: the LogP amounted to 5.2. Same read-out and setting: the same measure for `COC(=O)C(c1cccc2ccccc12)N(C(=O)c1c(C)nn(C)c1F)C1CC1` (stereo not shown) [Example 63]: 2.92.

`COC(=O)C(c1cccc2ccccc12)N(C(=O)c1cn(C)nc1C(F)F)C1CC1` (stereo not shown) [Example 69] returned a LogP of 3.02. The same measure, in the same setting: the same measure for `COc1nn(C)cc1C(=O)N(C1CC1)C(C)c1cccc2ccccc12` (stereo not shown) [Example 75]: 2.86.
